Measurements as given in patent publication US9458113B2 (Boehringer Ingelheim International GmbH, priority 2014, dated 2016).
In brackets after ≈: the same amount, converted by molar mass.

Assays:
human hepatocytes = assay: Metabolic stability with human hepatocytes; assay type: in vitro ADME; conditions: 1 μM test compound, well stirred model
Protocol: Assay for the Determination of Metabolic Stability with Human Hepatocytes
The metabolic degradation of the test compound is assayed in a human hepatocyte suspension. Human hepatocytes (typically cryopreserved) are incubated in an appropriate buffer system (e.g. Dulbecco's modified eagle medium plus 3.5 μg glucagon/500 mL, 2.5 mg insulin/500 mL and 3.75 mg/500 mL hydrocortison) containing 5% species serum. Following a (typically) […] preincubation in an incubator (37° C., 10% CO2), 5 μl of test compound solution (80 μM; from […] stock solution in DMSO diluted 1:25 with medium) are added into 395 μl hepatocyte suspension (cell density in the range 0.25-5*10^6 cells/mL, typically 1*10^6 cells/mL; final concentration of test compound 1 μM, final DMSO concentration 0.05%). The cells are incubated for six hours (incubator, orbital shaker) and samples (25 μl) are taken at 0, 0.5, 1, 2, 4 and 6 hours. Samples are transferred into acetonitrile and pelleted by centrifugation (5 min) The supernatant is transferred to a new 96-deepwell plate, evaporated under nitrogen and resuspended. The decline of parent compound is analyzed by LC-MS/MS.
The intrinsic clearance CL_[…] is calculated as follows: CL_[…]=Dose/AUC=(C0/CD)/(AUD+clast/k)*1,000/60
(C0: initial concentration in the incubation [μM], CD: cell density of vital cells [10^6 cells/mL], AUD: area under the data [μM*h], clast: concentration of last data point [μM], k: slope of the regression line for parent decline [h^−1])
The calculated in vitro hepatic intrinsic clearance Qh can be scaled up to the intrinsic in vivo hepatic clearance and used to predict hepatic in vivo blood clearance (CL) by the use of a liver model (well stirred model): CL_[…]_INVIVO [ml/min/kg]=(CL_[…] [μL/min/10^6 cells]*hepatocellularity [10^6 cells/g liver]*liver factor [g/kg bodyweight])/1,000 CL [ml/min/kg]=CL_[…]_INVIVO [ml/min/kg]*hepatic blood flow [ml/min/kg]/(CL_[…]_INVIVO [ml/min/kg]+hepatic blood flow [ml/min/kg]) Qh [%]=CL [ml/min/kg]/hepatic blood flow [ml/min/kg])
(Hepatocellularity, human: 120*10^6 cells/g liver; liver factor, human: 25.7 g/kg bodyweight; blood flow, human: 21 ml/(min*kg))
The calculated in-vitro hepatic intrinsic clearance values of selected compounds in the metabolic stability assay with human hepatocytes described above are listed in Table 15.

[1] = Aqueous solubility (High Throughput Method); assay type: physicochemical; conditions: McIlvaine buffer pH 6.8 with 2.5% DMSO, kinetic from dmso stock, McIlvaine buffer pH 6.8, 2.5% DMSO, 24 h shaking
Protocol: Assay for Determination of Aqueous Solubility (“High Throughput Method”)
Starting from a […] DMSO stock solution, aliquots are diluted with acetonitrile/water (1/1) and McIlvaine buffer pH 6.8, respectively. After 24 h of shaking, the solutions or suspensions are filtered and analyzed by LC-UV. The amount dissolved in buffer is compared to the amount dissolved in the acetonitrile/water (1/1) solution. Solubility is measured from 0.001 to 0.125 mg/ml at a DMSO concentration of 2.5%. If more than 90% of the compound is dissolved in buffer, the value is marked with “>”.

[2] = Aqueous solubility (Shaked Flask Method); assay type: physicochemical; conditions: aqueous buffer, thermodynamic from solid, pH 6.8
Protocol: Assay for Determination of Aqueous Solubility (“Shaked Flask Method”)
Saturated solutions are prepared in well plates by adding an appropriate volume of selected aqueous media (typically in the range of 0.25-1.5 ml) into each well which contains a known quantity of solid drug substance (typically in the range 0.5-5.0 mg). The wells are shaken or stirred for a predefined time period (typically in a range of 2-24 h) and then filtered using appropriate filter membranes (typically PTFE-filters with 0.45 μm pore size). Filter absorption is avoided by discarding the first few drops of filtrate. The amount of dissolved drug substance is determined by UV spectroscopy or by HPLC with UV-detection. In addition, the pH of the aqueous saturated solution is measured using a glass-electrode pH meter.

[3] = Drug transport across human Caco-2 cells; assay type: in vitro ADME; conditions: apparent permeability coefficient, Caco-2 monolayers, pH 7.2, 37° C.; for Papp A→B at 10 µM: apical-to-basal (absorptive), read-out: PEAB; for Papp B→A at 10 µM: basal-to-apical (secretory), read-out: PEBA
Description: Assay for Determination of Drug Transport Across Human Caco-2 Cells
The assay provides information on the potential of a compound to pass the cell membrane, on the extent of oral absorption as well as on whether the compound is actively transported by uptake and/or efflux transporters. For the measurement of permeability across polarized, confluent human cancer colon carcinoma cells 2 (Caco-2) cell monolayers grown on permeable filter supports are used as the in vitro absorption model.
Apparent permeability coefficients (PE) of the compounds across the Caco-2 monolayers are measured (pH 7.2, 37° C.) in apical-to-basal (AB) (absorptive) and basal-to-apical (BA) (secretory) transport direction. AB permeability (PEAB) represents drug absorption from the intestine into the blood and BA permeability (PEBA) drug secretion from the blood back into the intestine via both passive permeability as well as active transport mechanisms mediated by efflux and uptake transporters that are expressed on the Caco-2 cells. The compounds are assigned to permeability/absorption classes by comparison of the AB permeabilities with the AB permeabilities of reference compounds with known in vitro permeability and oral absorption in the human. Identical or similar permeabilities in both transport directions indicate passive permeation, vectorial permeability points to additional active transport mechanisms. […] Active transport is concentration-dependently saturable.
Caco-2 cells (1-2*10^5 cells/cm^2 area) are seeded on filter inserts (Costar transwell polycarbonate or PET filters, 0.4 μm pore size) and cultured (DMEM) for 10 to 25 days. Compounds are dissolved in appropriate solvent (like DMSO, […] stock solutions). Stock solutions are diluted with HTP-4 buffer (128.13 mM NaCl, 5.36 mM KCl, 1 mM MgSO4, 1.8 mM CaCl2, 4.17 mM NaHCO3, 1.19 mM Na2HPO4x7H2O, 0.41 mM NaH2PO4xH2O, 15 mM HEPES, 20 mM glucose, pH 7.2) to prepare the transport solutions (typically 10 μM compound, final DMSO<=0.5%). The transport solution (TL) is applied to the apical or basolateral donor side for measuring A-B or B-A permeability (3 filter replicates), respectively. The receiver side contains HTP-4 buffer supplemented with 2% BSA. Samples are collected at the start and end of experiment from the donor and at various time intervals for up to 2 hours also from the receiver side for concentration measurement by LC-MS/MS or scintillation counting. Sampled receiver volumes are replaced with fresh receiver solution.
The apparent permeability coefficients (PEAB and PEBA) of selected compounds in the Caco-2 drug transport assay described above are listed in Table 16.

Row | Qh (human hepatocytes) | solubility at 24 h [1] | solubility [2] | Papp A→B at 10 µM [3] | Papp B→A at 10 µM [3] | SMILES
1 | 10% | 48 µg/mL (≈ 96.7 µM) | > 10 µg/mL | 21 ×10⁻⁶ cm/s | 84 ×10⁻⁶ cm/s | CN1C(=O)N(c2cccc(C(F)(F)F)c2)C2=C(C(=O)CC2)[C@H]1c1ccc(C#N)cc1CNC(C)(C)C [Example 24, 3-(tert-Butylamino-methyl)-4-[(R)-3-methyl-2,5-dioxo-1-(3-trifluoromethyl-phenyl)-2,3,4,5,6,7-hexahydro-1H-cyclopentapyrimidin-4-yl]-benzonitrile]
2 | 12% | 84 µg/mL (≈ 185 µM) | > 10 µg/mL | 4.8 ×10⁻⁶ cm/s | 51 ×10⁻⁶ cm/s | CN1C(=O)N(c2cccc(C(F)(F)F)c2)C2=C(C(=O)CC2)[C@H]1c1ccc(C#N)cc1C(N)=O [Example 2, 5-Cyano-2-[(R)-3-methyl-2,5-dioxo-1-(3-trifluoromethyl-phenyl)-2,3,4,5,6,7-hexahydro-1H-cyclopentapyrimidin-4-yl]-benzamide]
3 | 13% | 53 µg/mL (≈ 102 µM) | > 10 µg/mL | 6.6 ×10⁻⁶ cm/s | 87 ×10⁻⁶ cm/s | CN1C(=O)N(c2cccc(C(F)(F)F)c2)C2=C(C(=O)CC2)[C@H]1c1ccc(C#N)cc1-c1ccc(=O)n(C)c1 [Example 23, 4-[(R)-3-Methyl-2,5-dioxo-1-(3-trifluoromethyl-phenyl)-2,3,4,5,6,7-hexahydro-1H-cyclopentapyrimidin-4-yl]-3-(1-methyl-6-oxo-1,6-dihydro-pyridin-3-yl)-benzonitrile]
